Source: patent US8536212B2, “Protective agent for retinal nerve or optic nerve” (Sanwa Kagaku Kenkyusho Co., Ltd., priority 2007, dated 2013)

System: retinal ganglion cells
Assay: Mouse ophthalmic artery occlusion model: retinal ischemia 2 hours, reperfusion 22 hours, survival of retinal ganglion cells
Type: in vivo, C57BL/6N normal mice (wild type mice)
Settings: for The number of surviving retinal ganglion cells per 1 μm of retina section, average ± SEM: drug given by forced intragastric administration 15 minutes before reperfusion
Protocol: In the experiment, mouse models with acute ophthalmic artery infarction, namely, mouse models with ophthalmic artery infarction were used. In Experiment 1, eight to ten-week-old C57BL/6N normal mice (wild type mice) were used and the therapeutic efficacy of fidarestat as the compound with aldose reductase (AR) inhibiting activity was evaluated. Here, those mice were divided into two groups: a control group to which only vehicle was administered and a fidarestat administered group to which fidarestat was administered. In Experiment 2, eight to ten-week-old C57BL/6N normal mice (wild type mice:AR^+/+ mice) and AR gene-deficient mice (AR^−/− mice) were used and the role of AR was examined. Here, those mice were divided into two groups: a wild type mouse group (AR^+/+ mice) and an AR gene-deficient mouse group (AR^−/− mice) and a drug administered group was not used.
Used mice (24 to 28 g of body weight) were subjected to intraluminal suture with nylon monofilament under gas anesthesia. A nylon filament was inserted into the right internal carotid artery at the bifurcation of the middle cerebral artery and the anterior cerebral artery from the common carotid artery. The mice were subjected to retinal ischemia in the right eye. The filament was pulled 2 hours after the ischemia and reperfusion was performed for 22 hours. On the other hand, left eye was evaluated as a normal control eye. In order to confirm ischemia or reperfusion, relative cerebral blood flow (rCBF) in the middle cerebral artery was monitored with a laser Doppler meter during the experiment. Decrease in the rCBF of 75% or more was defined as middle cerebral artery ischemia. The drug was administered 15 minutes before reperfusion starts by forced intragastric administration. At the end of the experiment, the isolated eyes were fixed in 4% paraformaldehyde at 4° C. overnight. The retinal ganglion cell layer was subjected to hematoxylin and eosin stain. Then, the number of surviving retinal ganglion cells was observed and measured. […] All cells of the retina ganglionic layer in each retina section were measured. Further, all measurements were performed by a blind fashion.

**Q.** With `NC(=O)[C@@H]1C[C@]2(NC(=O)NC2=O)c2cc(F)ccc2O1` [Fidarestat, (2S,4S)-6-fluoro-2′,5′-dioxospiro[chroman-4,4′-imidazolidine]-2-carboxamide] as the molecule, how does the “The number of surviving retinal ganglion cells per 1 μm of retina section, average ± SEM” value (side of no retinal ischemia (left eye, normal control eye)) read?
**A.** Its value is 23 ± 1 per 1 μm of retina section.

**Q.** What about the “The number of surviving retinal ganglion cells per 1 μm of retina section, average ± SEM” value (side of retinal ischemia (right eye), 2 hours ischemia and 22 hours reperfusion, P<0.001 vs control group) of the same molecule?
**A.** Its value is 21 ± 1^†††^ per 1 μm of retina section.

**Q.** And the “Pathological finding showing retinal ganglion cell death (hematoxylin and eosin stain)” value (side of retinal ischemia or side of no retinal ischemia, 2 hours ischemia, 22 hours reperfusion (FIG. 1: D3, D4))?
**A.** The value was “not observed”.

**Q.** What about the “Number of surviving retinal ganglion cells on the side of retinal ischemia compared with the control group” value (side of retinal ischemia, P<0.001) of the same molecule?
**A.** Its value is “significantly increased”.
